Data taken from article PMC9479156 (Frontiers in Pharmacology, 2022).
Read-outs that look alike come from different tables or passages of the source.

Experiments:
[1] = system: asexual blood stage P. falciparum NF54 (drug sensitive); design: method as in Coertzen et al., 2018; Wong et al., 2019; details: SYBR Green I, mean ± SEM, ref Coertzen et al., 2018, Wong et al., 2019; cited from earlier work
[2] = system: asexual blood stage P. falciparum NF54 (drug sensitive); test: SYBR Green I proliferation assay, asexual blood stage Pf NF54; assay type: cell-based; details: Plasmodium falciparum, NF54; asexual blood stage, SYBR Green I, 96 h, mean ± SEM; this study; read-out: IC50 NF54
Protocol: In vitro cultivation of asexual and gametocyte P. falciparum parasites: P. falciparum asexual blood stage parasites were cultivated in human erythrocytes in RPMI-1640 media supplemented with AlbuMax II under sterile conditions and in a hypoxic environment (90% N2, 5% CO2, and 5% O2) at 37°C as described previously ([Coertzen et al., 2018]; [Wong et al., 2019]). Gametocytes were produced from asexual blood stage parasites in a stage-specific manner through induction of cellular stress as described previously ([Reader et al., 2015]; [Coertzen et al., 2018]; [Wong et al., 2019]; [Reader et al., 2022]).
DHA, artesunate, artemether, chloroquine (CQ), and methylene blue (MB) were used as reference drugs. All assay conditions are as previously described ([Coertzen et al., 2018]; [Wong et al., 2019]). […] Dose-responses were determined using a 2-fold serial drug dilution on in vitro 95% ring-stage intraerythrocytic Pf parasites (1% parasitemia, 1% hematocrit) at 37°C under 90% N2, 5% CO2, and 5% O2 atmospheric conditions, detecting SYBR green I fluorescence as a marker for parasite proliferation following a 96 h drug treatment ([Smilkstein et al., 2004]; [Verlinden et al., 2011]). Activity against the Pf drug-sensitive NF54 strain and the multi drug-resistant K1 (resistant to CQ, quinine, pyrimethamine, and cycloguanil), and W2 (resistant to CQ, quinine, pyrimethamine, and cycloguanil) strains was evaluated. […] Data analysis was performed using GraphPad Prism (version 6) software, intra-assay variability was monitored with Z-factors, and acceptable inter-assay reproducibility was determined from the percent coefficient of variation (CV) ([Reader et al., 2015]). […]
Activity was determined using the SYBR Green I based fluorescence assay on asexual blood stages of the NF54 (drug sensitive), K1 and W2 (drug resistant) strains of P. falciparum. […] Also included in Table 1 for direct comparison of activities against celastrol are data for the internal reference standards MB and artemisone recorded at the same time as for celastrol. […]

[3] = system: late stage IV-V P. falciparum NF54 gametocytes; design: method as in Coertzen et al., 2018, Wong et al., 2019; details: NF54 gametocytes, luciferase, 72 h, mean ± SEM; ref Coertzen et al., 2018, Wong et al., 2019; read-out: Late stage IV-V (luc 72 h) IC50; cited from earlier work
[4] = system: immature stage II-III P. falciparum NF54 gametocytes; design: method as in Coertzen et al., 2018, Wong et al., 2019; details: NF54 gametocytes, luciferase, 48 h, mean ± SEM; ref Coertzen et al., 2018, Wong et al., 2019; read-out: Immature stage II-III (luc 48 h) IC50; cited from earlier work
[5] = system: asexual blood stage Pf NF54; test: Fixed-ratio isobole drug combination assay (SYBR Green I); assay type: cell-based, Plasmodium falciparum
Protocol: The in vitro interactions of celastrol with artemisone and MB was determined using a fixed-ratio isobole analysis on Pf NF54 asexual parasites (SYBR Green I-based fluorescence). […] The fractional inhibitory concentration (FIC) for each drug in the combination was calculated as follows:
FIC = IC50 of drug A in combination with drug B/IC50 of drug A
The paired FIC values for the drugs in each combination were linearly plotted to provide the isobologram. The ΣFIC of FIC of drug A in combination with FIC of drug B was determined by calculating the mean FIC value, to obtain the representative FIC value for the drug combination. Data obtained were analysed in Excel, and sigmoidal dose-response curves and isobolograms were plotted using GraphPad 6.0. Experiments were performed in triplicate, and repeated 3 times.
As previously recorded for each of artemiside and artemisone in combination with MB ([Coertzen et al., 2018]), drug-drug interactions were monitored through evaluation of fractional inhibitory concentration (FIC) as determined by isobolograms. A mean ΣFIC<1.0 represents a synergistic interaction, >1.3 an antagonistic interaction and ΣFIC = 1 an indifferent or additive interaction. Isobologram analysis of the combinations of each of artemisone and MB in combination with celastrol was performed against the asexual stages of Pf NF54 using the SYBR Green I based assay. In Table 3 are shown the calculated FIC values for the independent combinations at each ratio as well as the ∑FIC values for each combination. In Figure 5 are presented the independent isoboles for each drug combination.

[6] = system: asexual blood stage P. falciparum W2 (multidrug resistant); design: method as in Coertzen et al., 2018; Wong et al., 2019; details: asexual blood stage, SYBR Green I, mean ± SEM; ref Coertzen et al., 2018; Wong et al., 2019; cited from earlier work
[7] = system: asexual blood stage P. falciparum K1 (multidrug resistant); details: asexual blood stage, SYBR Green I, mean ± SEM; ref Coertzen et al., 2018; Wong et al., 2019; cited from earlier work
[8] = system: multidrug resistant Pf K1 strain; details: tritiated hypoxanthine assay; ref Figueiredo et al., 1998; Li et al., 2019; cited from earlier work
[9] = system: chloroquine sensitive Pf NF54 strain; details: tritiated hypoxanthine assay; ref Figueiredo et al., 1998; Li et al., 2019; cited from earlier work
Pf = system: Pf; design: method as in Lanfranchi et al., 2012; details: tritiated hypoxanthine assay; ref Lanfranchi et al., 2012; cited from earlier work

In the case of `CN(C)c1ccc2nc3ccc(=[N+](C)C)cc-3sc2c1` [Methylene Blue, methylene blue, reference compound], the IC50 [1] is listed as 5 nM, the IC50 [2] is listed as 5.9 ± 0.8 nM and the IC50 [3] is listed as 143 ± 16.7 nM. For the same compound, the IC50 [4] was 95 ± 11.3 nM, the FIC ([5]; MB:celastrol drug ratio 20:80, Pf NF54) was 0.70 and the FIC ([5]; MB:celastrol drug ratio 40:60, Pf NF54) was 0.67. For the same compound, the FIC ([5]; MB:celastrol drug ratio 60:40, Pf NF54) was 0.66, the FIC ([5]; MB:celastrol drug ratio 80:20, Pf NF54) was 0.79 and the IC50 [6] was 5.13 ± 0.31 nM. For the same compound, the IC50 [7] was 6.45 ± 0.3 nM.

In the case of `COC(=O)[C@]1(C)CC[C@]2(C)CC[C@]3(C)C4=CC=C5C(=CC(=O)C(O)=C5C)[C@]4(C)CC[C@@]3(C)[C@@H]2C1` [Pristimerin, pristimerin, reference compound], the IC50 [8] is given as 409 nM and the IC50 [9] is given as 583 nM.

For `CC1=CC(=O)c2ccccc2C1=O` [menadione], the IC50 (Pf) is listed as 9600 to 12000 nM.
